Each block holds one molecule with its values, some of them ahead of it.
Experiments:
[1] = Human pharmacokinetic study: anthocyanins in saliva and peripheral blood after topical gel application; assay type: in vivo; conditions: for number of donors with detectable levels in peripheral blood: of nine participants, 5% berry gel (pH 6.5), five minutes after application; for Anthocyanin concentration in saliva / Anthocyanin concentration in peripheral blood: 1.0 g 5% FBR Gel, pH 6.5 topical to floor of mouth; for Anthocyanin concentration in saliva: saliva collected 2-5 min after application; for Anthocyanin concentration in peripheral blood: blood drawn five minutes after application
Description: Anthocyanin content in sera, saliva, and tissue explants was evaluated by an HPLC-MS assay. The respective samples (sera, saliva or tissue homogenates) were dissolved in 90% solvent A (water plus 1% formic acid) and 10% solvent B (acetonitrile plus 1% formic acid) and then separated on a Symmetry C18 reversed-phase column and analyzed using a Waters 2695 gradient HPLC separation module equipped with a 996 photodiode-array (PDA) UV/visible absorbance detector (Milford, Mass.). The solvent system consisted of a step gradient from 90% A to 50% B over 15 minutes, and the absorption spectra were recorded from 200-800 nm with the inline PDA detector. Mass spectrometry was conducted on a quadrupole ion tunnel mass spectrometer equipped with a Z-spray ESI source. Explant protein levels were determined by the Lowry method, using bovine γ-globulin as the standard protein [Lippman et al., 1993].
Next, evaluation of anthocyanin uptake into human oral mucosa from FBR gels prepared as described in Example 1 was undertaken. For in-vivo studies, participation of human subjects was conducted in accordance with an IRB approved protocol. […] For the phamacokinetic analyses, nine consenting adult volunteers dried the anterior floor of their mouth, placed 1.0 g of 5% berry gel (pH 6.5), and massaged the gel in place for 30 seconds to facilitate uptake. Two minutes after gel application saliva was collected for the next three minutes. Peripheral blood was drawn five minutes after gel application. Following clotting, sera samples were collected, and both the sera and saliva samples were stored at −80° C. until LC-MS analysis as described below.
All nine participants had detectable anthocyanin levels of three anthocyanins (cyanidin 3-rutinoside, cyanidin 3-xylosylrutinoside, cyanidin 3-glucoside) in either their saliva or blood, and 4 donors had detectable levels of two anthocyanins (cyanidin 3-rutinoside and cyanidin 3-xylosylrutinoside) in their peripheral blood. Saliva from eight of the nine donors contained detectable levels of either two (cyanidin 3-rutinoside and cyanidin 3-xylosylrutinoside-4 donors) or three anthocyanins (4 donors).

[2] = tested on: Human Oral Mucosa Explant Tissues; test: Effect of final gel pH on anthocyanin uptake into human oral mucosa explant tissues; assay type: in vitro ADME; conditions: 10% w/w FBR gel; for Anthocyanin uptake, Gel pH 3.5, Avg. ± SEM / Anthocyanin uptake, Gel pH 6.5, Avg. ± SEM: average of eleven explant samples; for % change 3.5 to 6.5, Avg. ± SEM: average of explant samples
Description: Anthocyanin content in sera, saliva, and tissue explants was evaluated by an HPLC-MS assay. The respective samples (sera, saliva or tissue homogenates) were dissolved in 90% solvent A (water plus 1% formic acid) and 10% solvent B (acetonitrile plus 1% formic acid) and then separated on a Symmetry C18 reversed-phase column and analyzed using a Waters 2695 gradient HPLC separation module equipped with a 996 photodiode-array (PDA) UV/visible absorbance detector (Milford, Mass.). The solvent system consisted of a step gradient from 90% A to 50% B over 15 minutes, and the absorption spectra were recorded from 200-800 nm with the inline PDA detector. Mass spectrometry was conducted on a quadrupole ion tunnel mass spectrometer equipped with a Z-spray ESI source. Explant protein levels were determined by the Lowry method, using bovine γ-globulin as the standard protein [Lippman et al., 1993]. Tissue explants, specifically human oral mucosal explants, were used to determine the in vitro effects of FBR content and pH on anthocyanin uptake. Human oral tissues for the tissue explant studies were obtained from consenting volunteers who were undergoing elective oral surgery procedures. To confirm “no pathologic diagnosis”, a portion of each of these tissues was submitted for light microscopic evaluation. […] Tissues for explant experiments were immediately placed in an artificial saliva transport medium, which also served as the incubation medium for the gel absorption studies. The composition of the artificial saliva used for tissue transport and incubation was (final concentrations): sodium carboxymethylcellulose (0.5%), sorbitol (165 mM), NaCl (14 mM), KCl (16 mM), calcium chloride dehydrate (1.0 mM), MgCl2 (0.63 mM), Trizma hydrochloride (2.0 mM). Tissues from eight donors were used for preliminary studies to compare the penetration of anthocyanins from the 5% berry gel and the 10% FBR gel, both at a final pH of 6.5. In order to account for heterogeneity among human donors, tissue samples were hemisected. One tissue portion treated with 5% and the other with 10% FBR gels. One gram of gel (containing either 5% or 10% w/w FBR) was placed on the epithelial surface of the explant, followed by gently rubbing of the site for 30 seconds to facilitate uptake. Explants were then placed into artificial saliva, incubated for 30 minutes (37° C., 5% CO2), and then frozen at −80° C. until HPLC-mass spectroscopy analyses as previously reported [Rodrigo et al., in press]. Tissue preparation for HPLC analyses consisted of homogenization of the entire oral mucosal specimen, removal of an aliquot for sample protein level determination, followed by the addition of collagenase type II (0.1 mg/mL, GIBCO, Grand Island, N.Y.) and 1% formic acid. Samples were then placed on a Sep Pack (Millipore, Billerica, Mass.), eluted with methanol, and dried under argon gas. Additional oral mucosal explant studies were conducted to compare the effect of FBR gel pH on absorption into oral mucosal explants. Tissues from eleven donors were used for these studies, and handling was as described above with the exception that all gels contained 10% w/w FBR and were formulated at a final pH of 3.5 or 6.5. […] Large differences (up to 15-fold) in detectable anthocyanin levels were found in the gel treated donor tissues; findings that likely reflect the extensive heterogeneity within human tissues that affects tissue penetrative abilities.

number of donors with detectable levels in peripheral blood [1]: 4 donors | Anthocyanin concentration in saliva ([1]; patient 101): 3.5 pmol/mL | Anthocyanin concentration in saliva ([1]; patient 102): 1.7 pmol/mL | Anthocyanin concentration in peripheral blood ([1]; patient 103): 2.3 pmol/mL | Anthocyanin concentration in saliva ([1]; patient 104): 4.6 pmol/mL | Anthocyanin concentration in peripheral blood ([1]; patient 105): 7.4 pmol/mL | Anthocyanin concentration in saliva ([1]; patient 105): 8.3 pmol/mL | Anthocyanin concentration in peripheral blood ([1]; patient 106): 5.6 pmol/mL | Anthocyanin concentration in saliva ([1]; patient 106): 6.1 pmol/mL | Anthocyanin concentration in peripheral blood ([1]; patient 107): 5.8 pmol/mL | Anthocyanin concentration in saliva ([1]; patient 107): 9.3 pmol/mL | Anthocyanin concentration in saliva ([1]; patient 108): 4.2 pmol/mL | Anthocyanin concentration in saliva ([1]; patient 109): 2.2 pmol/mL | Anthocyanin uptake, Gel pH 3.5, Avg. ± SEM [2]: 31.9 pmol per mg tissue | Anthocyanin uptake, Gel pH 6.5, Avg. ± SEM [2]: 113.0 pmol per mg tissue | % change 3.5 to 6.5, Avg. ± SEM [2]: 956.3% | % change 3.5 to 6.5 ([2]; explant sample 001): 474.1% | Anthocyanin uptake, Gel pH 3.5 ([2]; explant sample 001): 116.4 pmol per mg tissue | Anthocyanin uptake, Gel pH 6.5 ([2]; explant sample 001): 668.3 pmol per mg tissue | % change 3.5 to 6.5 ([2]; explant sample 002): 627.2% | Anthocyanin uptake, Gel pH 3.5 ([2]; explant sample 002): 9.3 pmol per mg tissue | Anthocyanin uptake, Gel pH 6.5 ([2]; explant sample 002): 67.8 pmol per mg tissue | % change 3.5 to 6.5 ([2]; explant sample 003): −14.8% | Anthocyanin uptake, Gel pH 3.5 ([2]; explant sample 003): 34.3 pmol per mg tissue | Anthocyanin uptake, Gel pH 6.5 ([2]; explant sample 003): 29.2 pmol per mg tissue | % change 3.5 to 6.5 ([2]; explant sample 004): −64.4% | Anthocyanin uptake, Gel pH 3.5 ([2]; explant sample 004): 26.3 pmol per mg tissue | Anthocyanin uptake, Gel pH 6.5 ([2]; explant sample 004): 9.4 pmol per mg tissue | % change 3.5 to 6.5 ([2]; explant sample 005): −20.0% | Anthocyanin uptake, Gel pH 3.5 ([2]; explant sample 005): 3.5 pmol per mg tissue | Anthocyanin uptake, Gel pH 6.5 ([2]; explant sample 005): 2.8 pmol per mg tissue | % change 3.5 to 6.5 ([2]; explant sample 006): 362.1% | Anthocyanin uptake, Gel pH 3.5 ([2]; explant sample 006): 45.7 pmol per mg tissue | Anthocyanin uptake, Gel pH 6.5 ([2]; explant sample 006): 211.1 pmol per mg tissue | % change 3.5 to 6.5 ([2]; explant sample 007): 45.1% | Anthocyanin uptake, Gel pH 3.5 ([2]; explant sample 007): 5.6 pmol per mg tissue | Anthocyanin uptake, Gel pH 6.5 ([2]; explant sample 007): 8.1 pmol per mg tissue | % change 3.5 to 6.5 ([2]; explant sample 008): 8905.1% | Anthocyanin uptake, Gel pH 3.5 ([2]; explant sample 008): 0.4 pmol per mg tissue | Anthocyanin uptake, Gel pH 6.5 ([2]; explant sample 008): 35.1 pmol per mg tissue | % change 3.5 to 6.5 ([2]; explant sample 009): 395.1% | Anthocyanin uptake, Gel pH 3.5 ([2]; explant sample 009): 43.9 pmol per mg tissue | Anthocyanin uptake, Gel pH 6.5 ([2]; explant sample 009): 207.4 pmol per mg tissue | % change 3.5 to 6.5 ([2]; explant sample 010): −91.4% | Anthocyanin uptake, Gel pH 3.5 ([2]; explant sample 010): 37.1 pmol per mg tissue | Anthocyanin uptake, Gel pH 6.5 ([2]; explant sample 010): 3.2 pmol per mg tissue | % change 3.5 to 6.5 ([2]; explant sample 011): −98.7% | Anthocyanin uptake, Gel pH 3.5 ([2]; explant sample 011): 28.7 pmol per mg tissue | Anthocyanin uptake, Gel pH 6.5 ([2]; explant sample 011): 0.4 pmol per mg tissue
Structure (SMILES): C[C@@H]1O[C@@H](OC[C@H]2O[C@@H](Oc3cc4c(O)cc(O)cc4[o+]c3-c3ccc(O)c(O)c3)[C@H](O)[C@@H](O)[C@@H]2O)[C@H](O)[C@H](O)[C@H]1O [cyanidin 3-rutinoside]

number of donors with detectable levels in peripheral blood [1]: 4 donors | Anthocyanin concentration in saliva ([1]; patient 101): 2.0 pmol/mL | Anthocyanin concentration in saliva ([1]; patient 102): 0.5 pmol/mL | Anthocyanin concentration in peripheral blood ([1]; patient 103): 0.6 pmol/mL | Anthocyanin concentration in saliva ([1]; patient 104): 1.5 pmol/mL | Anthocyanin concentration in peripheral blood ([1]; patient 105): 1.1 pmol/mL | Anthocyanin concentration in saliva ([1]; patient 105): 2.3 pmol/mL | Anthocyanin concentration in peripheral blood ([1]; patient 106): 0.8 pmol/mL | Anthocyanin concentration in saliva ([1]; patient 106): 1.9 pmol/mL | Anthocyanin concentration in peripheral blood ([1]; patient 107): 1.3 pmol/mL | Anthocyanin concentration in saliva ([1]; patient 107): 1.7 pmol/mL | Anthocyanin concentration in saliva ([1]; patient 108): 1.0 pmol/mL | Anthocyanin concentration in saliva ([1]; patient 109): 1.2 pmol/mL | Anthocyanin uptake, Gel pH 3.5, Avg. ± SEM [2]: 5.4 pmol per mg tissue | Anthocyanin uptake, Gel pH 6.5, Avg. ± SEM [2]: 17.4 pmol per mg tissue | % change 3.5 to 6.5, Avg. ± SEM [2]: 140.6% | % change 3.5 to 6.5 ([2]; explant sample 001): 522.5% | Anthocyanin uptake, Gel pH 3.5 ([2]; explant sample 001): 14.2 pmol per mg tissue | Anthocyanin uptake, Gel pH 6.5 ([2]; explant sample 001): 88.1 pmol per mg tissue | % change 3.5 to 6.5 ([2]; explant sample 002): 747.1% | Anthocyanin uptake, Gel pH 3.5 ([2]; explant sample 002): 1.2 pmol per mg tissue | Anthocyanin uptake, Gel pH 6.5 ([2]; explant sample 002): 10.3 pmol per mg tissue | % change 3.5 to 6.5 ([2]; explant sample 003): 12.1% | Anthocyanin uptake, Gel pH 3.5 ([2]; explant sample 003): 5.7 pmol per mg tissue | Anthocyanin uptake, Gel pH 6.5 ([2]; explant sample 003): 6.4 pmol per mg tissue | % change 3.5 to 6.5 ([2]; explant sample 004): −65.1% | Anthocyanin uptake, Gel pH 3.5 ([2]; explant sample 004): 3.6 pmol per mg tissue | Anthocyanin uptake, Gel pH 6.5 ([2]; explant sample 004): 1.3 pmol per mg tissue | % change 3.5 to 6.5 ([2]; explant sample 005): −45.9% | Anthocyanin uptake, Gel pH 3.5 ([2]; explant sample 005): 0.9 pmol per mg tissue | Anthocyanin uptake, Gel pH 6.5 ([2]; explant sample 005): 0.5 pmol per mg tissue | % change 3.5 to 6.5 ([2]; explant sample 006): 258.5% | Anthocyanin uptake, Gel pH 3.5 ([2]; explant sample 006): 9.9 pmol per mg tissue | Anthocyanin uptake, Gel pH 6.5 ([2]; explant sample 006): 35.5 pmol per mg tissue | % change 3.5 to 6.5 ([2]; explant sample 007): −9.4% | Anthocyanin uptake, Gel pH 3.5 ([2]; explant sample 007): 1.1 pmol per mg tissue | Anthocyanin uptake, Gel pH 6.5 ([2]; explant sample 007): 1.0 pmol per mg tissue | Anthocyanin uptake, Gel pH 3.5 ([2]; explant sample 008): 0.0 pmol per mg tissue | Anthocyanin uptake, Gel pH 6.5 ([2]; explant sample 008): 6.3 pmol per mg tissue | % change 3.5 to 6.5 ([2]; explant sample 009): 318.4% | Anthocyanin uptake, Gel pH 3.5 ([2]; explant sample 009): 9.9 pmol per mg tissue | Anthocyanin uptake, Gel pH 6.5 ([2]; explant sample 009): 41.3 pmol per mg tissue | % change 3.5 to 6.5 ([2]; explant sample 010): −91.9% | Anthocyanin uptake, Gel pH 3.5 ([2]; explant sample 010): 6.7 pmol per mg tissue | Anthocyanin uptake, Gel pH 6.5 ([2]; explant sample 010): 0.5 pmol per mg tissue | % change 3.5 to 6.5 ([2]; explant sample 011): −100% | Anthocyanin uptake, Gel pH 3.5 ([2]; explant sample 011): 6.0 pmol per mg tissue | Anthocyanin uptake, Gel pH 6.5 ([2]; explant sample 011): 0.00 pmol per mg tissue
Structure (SMILES): CC1OC(OCC2OC(Oc3cc4c(O)cc(O)cc4[o+]c3-c3ccc(O)c(O)c3)C(OC3OCC(O)C(O)C3O)C(O)C2O)C(O)C(O)C1O (stereo not shown) [cyanidin 3-xylosylrutinoside]

Reference: US20100047371A1, “COMPOSITIONS AND METHODS FOR ORAL CANCER CHEMOPREVENTION USING BERRY PREPARATIONS AND EXTRACTS” (priority 2006, published 2010)
